The values below come from US9938262B2, “Benzamides” (Merck Patent GmbH, priority 2011, dated 2018).

A value given as a limit tells only on which side of the number the result lay.

For one test, the target named is T1, FSHR (Homo sapiens, UniProt P23945).
T1 construct: expressed in transfected cells; host or cells: CHO (Cho-FSHR-LUC-1-1-43)
T1 sequence (P23945 18-695): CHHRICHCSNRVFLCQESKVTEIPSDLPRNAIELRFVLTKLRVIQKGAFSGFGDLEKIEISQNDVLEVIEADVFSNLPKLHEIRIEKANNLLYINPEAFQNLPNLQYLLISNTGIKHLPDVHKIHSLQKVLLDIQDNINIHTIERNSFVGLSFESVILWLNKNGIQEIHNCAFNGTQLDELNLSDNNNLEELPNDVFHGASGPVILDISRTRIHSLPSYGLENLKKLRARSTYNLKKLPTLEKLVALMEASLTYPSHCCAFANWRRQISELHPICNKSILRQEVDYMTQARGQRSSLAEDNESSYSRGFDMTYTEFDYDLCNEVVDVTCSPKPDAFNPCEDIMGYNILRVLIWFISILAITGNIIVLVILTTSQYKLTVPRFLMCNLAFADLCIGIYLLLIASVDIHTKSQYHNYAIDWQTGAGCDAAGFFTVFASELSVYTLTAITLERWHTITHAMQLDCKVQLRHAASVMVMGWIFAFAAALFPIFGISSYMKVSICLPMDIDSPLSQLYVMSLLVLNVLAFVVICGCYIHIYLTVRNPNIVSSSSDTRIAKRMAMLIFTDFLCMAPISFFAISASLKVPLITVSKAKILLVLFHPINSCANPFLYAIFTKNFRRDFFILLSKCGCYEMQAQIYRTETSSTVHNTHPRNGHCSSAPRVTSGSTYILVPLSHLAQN
T1 sequence (P01215 25-116 partner): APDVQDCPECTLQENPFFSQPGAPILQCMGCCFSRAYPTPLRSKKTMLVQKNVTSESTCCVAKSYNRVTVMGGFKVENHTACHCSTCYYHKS
T1 sequence (P01225 19-129 partner): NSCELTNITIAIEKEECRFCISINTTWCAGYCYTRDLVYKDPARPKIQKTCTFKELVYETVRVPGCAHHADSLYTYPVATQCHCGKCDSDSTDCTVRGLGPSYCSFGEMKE
Nature of the test: EC50 of cyclic AMP production in CHO FSHR cells + EC20 FSH (Assay A). It is filed as cell-based. The settings on record: 1 h; 5 μM; effect relative to maximum response of the FSH standard; Table 1. The gist of the method: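 cAMP HTRF ratio (665/620 nm) read after 1 h, 37 °C exposure of CHO-FSHR cells to compound in presence of EC20 FSH ([…]) and IBMX 200 μM. Responses given relative to FSH standard maximum; EC50 derived.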
For `Cc1ccccc1N1CCN(c2ccc(C(=O)NCc3ccc(C(F)(F)F)cc3)cc2NC(=O)c2ccco2)CC1` [Compound 94, Furan-2-carboxylic acid [2-(4-o-tolyl-piperazin-1-yl)-5-(4-trifluoromethyl-benzylcarbamoyl)-phenyl]-amide], the activation at 5 µM is 48%. With `Cc1ccccc1N1CCN(c2ccc(C(=O)NCCCN3CCCC3=O)cc2NS(=O)(=O)c2cccc3ncccc23)CC1` [Compound 229], the activation at 5 µM was 41%.

As to `Cc1ccccc1N1CCN(c2ccc(C(=O)NCCCN3CCCC3=O)cc2NC(=O)C2CCN(C)CC2)CC1` [Compound 83], the activation at 5 µM was determined as 8%. Consider `Cc1ccccc1N1CCN(c2ccc(C(=O)NCCCN3CCCC3=O)cc2NC(=O)c2cccc(N(C)C)c2)CC1` [Compound 86], for which the activation at 5 µM was found to be 47%.

As to `Cc1ccccc1N1CCN(c2ccc(C(=O)NCCCN3CCCC3=O)cc2NC(=O)c2cccc(C(N)=O)c2)CC1` [Compound 163], the activation at 5 µM turned out to be 8%.

For `CC(=O)N1CCN(C(=O)c2ccc(N3CCN(c4ccccc4C)CC3)c(NC(=O)c3ccco3)c2)CC1` [Compound 23], the activation at 5 µM amounted to 4%.

Staying with this test, now noted: CHO FSHR cells + EC20 FSH; Table 1; read-out: Assay A EC50 of cyclic AMP production.
By EC50 is commonly meant the concentration needed to bring the measured effect to its halfway point. Regarding `Cc1ccccc1N1CCN(c2ccc(C(=O)N[C@@H](C)c3ccccc3)cc2NC(=O)c2ccco2)CC1` [Compound 11, furan-2-carboxylic acid [5-((S)-1-phenyl-ethylcarbamoyl)-2-(4-o-tolyl-piperazin-1-yl)-phenyl]-amide], the EC50 was 100 to 1000 nM. For the molecule `COc1ccccc1C(=O)Nc1cc(C(=O)NCCCN2CCCC2=O)ccc1N1CCN(c2ccccc2C)CC1` [Compound 41], the half-maximal effective concentration (EC50) fell in the range of 1000 to 10000 nM. As to `Cc1ccccc1N1CCN(c2ccc(C(=O)NCc3cccc(-c4ccn(C)n4)c3)cc2NC(=O)c2ccco2)CC1` [Compound 240], the EC50 is 100 to 1000 nM. As for `Cc1ccccc1N1CCN(c2ccc(C(=O)N[C@H](CO)c3ccccc3)cc2NC(=O)c2ccco2)CC1` [Compound 67, Furan-2-carboxylic acid [5-((S)-2-hydroxy-1-phenyl-ethylcarbamoyl)-2-(4-o-tolyl-piperazin-1-yl)-phenyl]-amide], the half-maximal effective concentration (EC50) was in the range of 100 to 1000 nM. Consider `Cc1ccccc1N1CCN(c2ccc(C(=O)NCCCN3CCCC3=O)cc2NC(=O)c2cnc(Cl)s2)CC1` [Compound 197], for which the EC50 fell in the range of 1000 to 10000 nM. Regarding `Cc1ccccc1N1CCN(c2ccc(C(=O)NCCCN3CCCC3=O)cc2NC(=O)c2ccc[nH]2)CC1` [Compound 24], the concentration for a half-maximal effect (EC50) lay within 1000 to 10000 nM. For `Cc1cc(C(=O)Nc2cc(C(=O)NCCCN3CCCC3=O)ccc2N2CCN(c3ccccc3C)CC2)c(C)o1` [Compound 14], the EC50 was in the range of 100 to 1000 nM.

As for `CNCCNC(=O)c1ccc(N2CCN(c3ccccc3C)CC2)c(NC(=O)c2ccco2)c1` [Compound 132, Furan-2-carboxylic acid [5-(2-methylamino-ethylcarbamoyl)-2-(4-o-tolyl-piperazin-1-yl)-phenyl]-amide], the EC50 was 1000 to 10000 nM.

For `Cc1cccc(C(=O)Nc2cc(C(=O)NCCCN3CCCC3=O)ccc2N2CCN(c3ccccc3C)CC2)n1` [Compound 186, 6-Methyl-pyridine-2-carboxylic acid [5-[3-(2-oxo-pyrrolidin-1-yl)-propylcarbamoyl]-2-(4-o-tolyl-piperazin-1-yl)-phenyl]-amide], the EC50 lay in the range of 1000 to 10000 nM.

Take `Cc1ccccc1C(=O)Nc1cc(C(=O)NCCCN2CCCC2=O)ccc1N1CCN(c2ccccc2C)CC1` [Compound 111]: the EC50 fell in the range of 1000 to 10000 nM. In the case of `Cc1ccccc1N1CCN(c2ccc(C(=O)NCCC(=O)N3CCCC3)cc2NC(=O)c2coc(C3CC3)n2)CC1` [Compound 234], the 50% effective concentration (EC50) is 1000 to 10000 nM. `Cc1ccccc1N1CCN(c2ccc(C(=O)N[C@H]3O[C@@H](CO)[C@H](O)[C@@H]3O)cc2NC(=O)c2ccco2)CC1` [Compound 222]: the EC50 is 100 to 1000 nM. Regarding `CC(=O)NCCCNC(=O)c1ccc(N2CCN(c3ccccc3C)CC2)c(NC(=O)c2ccc(C)o2)c1` [Compound 259, 5-Methyl-furan-2-carboxylicacid [5-(3-acetylaminopropylcarbamoyl)-2-(4-o-tolyl-piperazin-1-yl)-phenyl]-amide], the EC50 was in the range of 100 to 1000 nM. For the molecule `Cc1ccccc1N1CCN(c2ccc(C(=O)NCCCN3CCCC3=O)cc2NC(=O)c2sccc2Br)CC1` [Compound 4], the EC50 lay within 1000 to 10000 nM.

The same test, now with this note: CHO FSHR cells + EC20 FSH; Table 2; read-out: Assay A EC50 of cyclic AMP production.
Take `Cc1ccccc1N1CCN(c2ccc(C(=O)NCCCN3CCCC3=O)cc2NC(=O)c2cnc(C3CC3)s2)CC1` [Compound 383]: the EC50 fell in the range of 100 to 1000 nM. Take `Cc1ccccc1N1CCN(c2ccc(C(=O)NCCCN3CCCC3=O)cc2NC(=O)c2cc(C3CC3)on2)CC1` [Compound 308]: the 50% effective concentration (EC50) was 100 to 1000 nM. For the molecule `CC(C)C(=O)N1CCN(c2ccc(C(=O)NCCCN3CCCC3=O)cc2NC(=O)c2coc(C3CC3)n2)CC1` [Compound 432], the EC50 fell in the range of 1000 to 10000 nM. Consider `CCc1ccccc1N1CCN(c2ccc(C(=O)NCCCN3CCCC3=O)cc2NC(=O)c2ccc(C)o2)CC1` [Compound 517], for which the EC50 was 100 to 1000 nM.

For `O=C(NCCCN1CCCC1=O)c1ccc(N2CCN(c3cccnn3)CC2)c(NC(=O)c2coc(C3CC3)n2)c1` [Compound 596], the EC50 fell in the range of 1000 to 10000 nM. With `Cc1ccccc1N1CCN(c2ccc(C(=O)NCc3cccc(C(F)(F)F)c3)cc2NC(=O)c2coc(C3CC3)n2)CC1` [Compound 528], the EC50 is 1000 to 10000 nM.

Regarding `COc1cc(CNC(=O)c2ccc(N3CCN(c4ccccc4C)CC3)c(NC(=O)c3coc(C4CC4)n3)c2)cc(OC)c1` [Compound 295], the EC50 was 100 to 1000 nM. The same measure, in the same setting: with `Cc1ccccc1N1CCN(c2ccc(C(=O)NCCCN)cc2NC(=O)c2coc(C3CC3)n2)CC1` [Compound 417] the figure was 1000 to 10000 nM; with `Cc1ccccc1N1CCN(c2ccc(C(=O)NCCCC(=O)CN(c3ccccc3)c3ccccc3)cc2NC(=O)c2coc(C3CC3)n2)CC1` [Compound 361], 1000 to 10000 nM; with `NC(=O)c1cccnc1N1CCN(c2ccc(C(=O)NCCCN3CCCC3=O)cc2NC(=O)c2coc(C3CC3)n2)CC1` [Compound 532], above 10000 nM. Still for that read-out and setting: with `Cc1ccccc1N1CCN(c2ccc(C(=O)NC[C@H](O)CO)cc2NC(=O)c2coc(C3CC3)n2)CC1` [Compound 565] the figure was 100 to 1000 nM; with `Cc1ccccc1N1CCN(c2ccc(C(=O)NCCCn3nccc3C3CC3)cc2NC(=O)c2ccco2)CC1` [Compound 374], 100 to 1000 nM; with `Cc1ccccc1N1CCN(c2ccc(C(=O)NCCCN3CCCC3=O)cc2NC(=O)c2ncc[nH]2)CC1` [Compound 440], 100 to 1000 nM. Still for that read-out and setting: with `Cc1ccccc1N1CCN(c2ccc(C(=O)NCCCNC(=O)NCC3CCCCC3)cc2NC(=O)c2ccco2)CC1` [Compound 497] the figure was 1000 to 10000 nM; with `Cc1nnc(N2CCN(c3ccc(C(=O)NCCCN4CCCC4=O)cc3NC(=O)c3coc(C4CC4)n3)CC2)s1` [Compound 598], 1000 to 10000 nM. Turning to `Cc1ccc(C(=O)Nc2cc(C(=O)N3CCC4(COC4)C3)ccc2N2CCN(c3ccccc3C)CC2)o1` [Compound 593], the EC50 lay in the range of 1000 to 10000 nM. Same read-out and setting: the value for `Cc1ccccc1N1CCN(c2ccc(C(=O)NCCCc3ccccc3Cl)cc2NC(=O)c2ccco2)CC1` [Compound 373] was 1000 to 10000 nM; that for `Cc1nc(C(=O)Nc2cc(C(=O)NCCc3cnc[nH]3)ccc2N2CCN(c3ccccc3C)CC2)cs1` [Compound 301] was 1000 to 10000 nM.

`CCN(C)Cc1cccc(CNC(=O)c2ccc(N3CCN(c4ccccc4C)CC3)c(NC(=O)c3ccc(C)o3)c2)c1` [Compound 547]: the EC50 fell in the range of 1000 to 10000 nM. As for `Cc1ccccc1N1CCN(c2ccc(C(=O)NCCC#N)cc2NC(=O)c2coc(C3CC3)n2)CC1` [Compound 453], the 50% effective concentration (EC50) lay in the range of 100 to 1000 nM. Take `Cc1ccccc1N1CCN(c2ccc(C(=O)NC(C)c3ccccc3)cc2NC(=O)c2coc(C3CC3)n2)CC1` (stereo not shown) [Compound 346]: the half-maximal effective concentration (EC50) lay in the range of 100 to 1000 nM. Consider `Cc1ccccc1N1CCN(c2ccc(C(=O)NCCCNC(=O)NC3CCCCC3)cc2NC(=O)c2ccco2)CC1` [Compound 496], for which the concentration for a half-maximal effect (EC50) was 100 to 1000 nM. Same read-out and setting: with `Cc1ccc(C(=O)Nc2cc(C(=O)NCCCc3cccc(O)c3)ccc2N2CCN(c3ccccc3C)CC2)o1` [Compound 588] the figure was 100 to 1000 nM; with `Cc1ccccc1N1CCN(c2ccc(C(=O)NC3CCCC(O)C3)cc2NC(=O)c2coc(C3CC3)n2)CC1` (stereo not shown) [Compound 552], below 100 nM; with `Cc1ccccc1N1CCN(c2ccc(C(=O)NC(C)CCN3CCCC3=O)cc2NC(=O)c2coc(C3CC3)n2)CC1` (stereo not shown) [Compound 364], 100 to 1000 nM. Same read-out and setting: the value for `Cc1ccccc1N1CCN(c2ccc(C(=O)NCCCNC(=O)NC(C)C)cc2NC(=O)c2coc(C3CC3)n2)CC1` [Compound 425] was 100 to 1000 nM; that for `CCN(CC)Cc1cccc(CNC(=O)c2ccc(N3CCN(c4ccccc4C)CC3)c(NC(=O)c3ccc(C)o3)c2)c1` [Compound 543] was 1000 to 10000 nM; that for `Cc1ccccc1N1CCN(c2ccc(C(N)=O)cc2NC(=O)c2ccco2)CC1` [Compound 283] was 1000 to 10000 nM. On the same count and under the same terms, with `Cc1ccccc1N1CCN(c2ccc(C(=O)NC(C)(C)c3cccc(CN(C)C)c3)cc2NC(=O)c2ccco2)CC1` [Compound 487] the figure was 1000 to 10000 nM; with `Cc1cc(F)ccc1N1CCN(c2ccc(C(=O)NCCCN3CCCC3=O)cc2NC(=O)c2coc(C3CC3)n2)CC1` [Compound 312], 100 to 1000 nM; with `Cc1ccccc1N1CCN(c2ccc(C(=O)NCCCN3CCCC3=O)cc2NC(=O)c2nnc(C3CC3)o2)CC1` [Compound 466], 1000 to 10000 nM. In the case of `Cc1ccc(C(=O)Nc2cc(C(=O)NCCCN3CCCC3=O)ccc2N2CCN(c3ncncc3C)CC2)o1` [Compound 419], the EC50 is above 10000 nM.

For the molecule `CCCCNC(=O)NCCCNC(=O)c1ccc(N2CCN(c3ccccc3C)CC2)c(NC(=O)c2coc(C3CC3)n2)c1` [Compound 427], the EC50 lay within 100 to 1000 nM. Consider `Cc1ccccc1N1CCN(c2ccc(C(=O)NCCCNC(=O)C3CCC3)cc2NC(=O)c2coc(C3CC3)n2)CC1` [Compound 448], for which the EC50 lay within 100 to 1000 nM. On to `CCC(=O)NCCCNC(=O)c1ccc(N2CCN(c3ccccc3C)CC2)c(NC(=O)c2coc(C3CC3)n2)c1` [Compound 445], for which the concentration giving a half-maximal response (EC50) is below 100 nM.
